These are literature values, as cited in publication PMC10182713 (South African Journal of Botany, 2023).

The series relates to multidrug-resistant TB. The note with it: ref Favela-Hernández et al. (2012); cited from earlier work.

Regarding `COc1cc(-c2oc3c(OC)c(OC)cc(O)c3c(=O)c2OC)ccc1O` [5,4-dihydroxy-3,7,8,3-tetramethoxyflavone], the “Activity against multidrug-resistant TB in words” value was “active”. With `COc1cc(O)c2c(=O)c(OC)c(-c3ccc(O)cc3)oc2c1OC` [5,4-dihydroxy 3,7,8-trimethoxyflavone], the “Activity against multidrug-resistant TB in words” value is reported as “active”.
